In US7939537B2, “HIV integrase inhibitors” (Istituto Di Ricerche Di Biologia Molecolare P. Angeletti …, priority 2006, dated 2011):

Test system: HIV
Test: Assay for inhibition of HIV replication (spread assay; acute HIV infection of T-lymphoid cells)
Assay type: cell-based
Details: Human immunodeficiency virus 1, tested up to 1 micromolar
Protocol: Assay for Inhibition of HIV Replication
Assays for the inhibition of acute HIV infection of T-lymphoid cells were conducted in accordance with Vacca, J. P. et al., Proc. Natl. Acad. Sci. USA 1994, 91: 4096. […] The compounds of Examples 6, 8, 9, 14, 15, 21-23 and 29-35 were also tested in the spread assay up to 1 micromolar, but specific IC95 values were not obtained; i.e., the IC95 values for these compounds are greater than 1 micromolar.

Compound: CCN(C(=O)c1nnc(C)o1)c1cccn2c(=O)c(O)c(C(=O)NCc3ccc(F)cc3)nc12 [Example 26, 9-{ethyl[(5-methyl-1,3,4-oxadiazol-2-yl)carbonyl]amino}-N-(4-fluorobenzyl)-3-hydroxy-4-oxo-4H-pyrido[1,2-a]pyrimidine-2-carboxamide]
- IC95: < 1000 nM

Compound: CCN(C(=O)C(=O)N1CCCC1)c1cccn2c(=O)c(O)c(C(=O)NCc3ccc(F)cc3)nc12 [Example 27, 9-{ethyl[oxo(pyrrolidin-1-yl)acetyl]amino}-N-(4-fluorobenzyl)-3-hydroxy-4-oxo-4H-pyrido[1,2-a]pyrimidine-2-carboxamide]
- IC95: < 1000 nM

Compound: CCN(C(=O)C(=O)N1CCN(C)CC1)c1cccn2c(=O)c(O)c(C(=O)NCc3ccc(F)cc3)nc12 [Example 28, 4-[[ethyl(2-{[(4-fluorobenzyl)amino]carbonyl}-3-hydroxy-4-oxo-4H-pyrido[1,2-a]pyrimidin-9-yl)amino](oxo)acetyl]-1-methylpiperazine]
- IC95: < 1000 nM

Compound: Cc1cccn2c(=O)c(O)c(C(=O)NCc3ccc(F)cc3)nc12 [Example 29, N-(4-fluorobenzyl)-3-hydroxy-9-methyl-4-oxo-4H-pyrido[1,2-a]pyrimidine-2-carboxamide]
- IC95: > 1000 nM

Compound: CN(C)Cc1cccn2c(=O)c(O)c(C(=O)NCc3ccc(F)cc3)nc12 [Example 30, 9-[(dimethylamino)methyl]-N-(4-fluorobenzyl)-3-hydroxy-4-oxo-4H-pyrido[1,2-a]pyrimidine-2-carboxamide]
- IC95: > 1000 nM

Compound: CON(C)Cc1cccn2c(=O)c(O)c(C(=O)NCc3ccc(F)cc3)nc12 [Example 31, N-(4-fluorobenzyl)-3-hydroxy-9-{[methoxy(methyl)amino]methyl}-4-oxo-4H-pyrido[1,2-a]pyrimidine-2-carboxamide]
- IC95: > 1000 nM

Compound: O=C(NCc1ccc(F)cc1)c1nc2c(CN3CCOCC3)cccn2c(=O)c1O [Example 32, N-(4-fluorobenzyl)-3-hydroxy-9-(morpholin-4-ylmethyl)-4-oxo-4H-pyrido[1,2-a]pyrimidine-2-carboxamide]
- IC95: > 1000 nM

Compound: CC(=O)N1CCN(Cc2cccn3c(=O)c(O)c(C(=O)NCc4ccc(F)cc4)nc23)CC1 [Example 33, 9-[(4-acetylpiperazin-1-yl)methyl]-N-(4-fluorobenzyl)-3-hydroxy-4-oxo-4H-pyrido[1,2-a]pyrimidine-2-carboxamide]
- IC95: > 1000 nM

Compound: O=C(NCc1cccn2c(=O)c(O)c(C(=O)NCc3ccc(F)cc3)nc12)c1ccccc1 [Example 34, 9-[(benzoylamino)methyl]-N-(4-fluorobenzyl)-3-hydroxy-4-oxo-4H-pyrido[1,2-a]pyrimidine-2-carboxamide]
- IC95: > 1000 nM

Compound: O=C(NCc1ccc(F)cc1)c1nc2ccc(Br)cn2c(=O)c1O [Example 35, 7-bromo-N-(4-fluorobenzy1)-3-hydroxy-4-oxo-4H-pyrido[1,2-a]pyrimidine-2-carboxamide]
- IC95: > 1000 nM
